System: FLU A (PR/8/34)
Assay: Flu A Neuraminidase Antiviral Assay
Assay type: cell-based

| Structure (SMILES) | EC50 |
| --- | --- |
| CCCC1CCC2N(C)C(=O)c3c(O)c(=O)ccn3N2C1c1ccccc1Cl (stereo not drawn) [Compound 65B, 1-(2-chlorophenyl)-7-hydroxy-5-methyl-2-propyl-1,2,3,4,4a,5-hexahydrodipyrido[1,2-b:2′,1′-f][1,2,4]triazine-6,8-dione] | 2.8 nM |
| CN1C(=O)c2c(O)c(=O)ccn2N2C(c3ccccc3)C(O)CCC12 (stereo not drawn) [Compound 136A, 2,7-dihydroxy-5-methyl-1-phenyl-1,2,3,4,4a,5-hexahydrodipyrido[1,2-b:2′,1′-f][1,2,4]triazine-6,8-dione] | 1920 nM |
| CCN1C(=O)c2c(O)c(=O)ccn2N2C(c3ccccc3F)C(CCC(F)F)CCC12 (single isomer, unassigned) [Compound 101B, 2-(3,3-difluoropropyl)-5-ethyl-1-(2-fluorophenyl)-7-hydroxy-1,2,3,4,4a,5-hexahydrodipyrido[1,2-b:2′,1′-f][1,2,4]triazine-6,8-dione] | 5.6 nM |
| CN1C(=O)c2c(O)c(=O)ccn2N2C1CCC(=O)C2(C)c1ccccc1 (stereo not drawn) [Compound 138B, 7-hydroxy-1,5-dimethyl-1-phenyl-3,4,4a,5-tetrahydrodipyrido[1,2-b:2′,1′-f][1,2,4]triazine-2,6,8(1H)-trione] | 1720 nM |
| C=CCC1CCC2N(C)C(=O)c3c(O)c(=O)ccn3N2C1c1ccccc1Cl (stereo not drawn) [Compound 64D, 2-allyl-1-(2-chlorophenyl)-7-hydroxy-5-methyl-1,2,3,4,4a,5-hexahydrodipyrido[1,2-b:2′,1′-f][1,2,4]triazine-6,8-dione] | 4.6 nM |
| CN1C(=O)c2c(O)c(=O)ccn2N2C1CCC1(CCCC(F)(F)C1)C2c1ccccc1 (single isomer, unassigned) [Compound 75D, 3,3-difluoro-7′-hydroxy-5′-methyl-1′-phenyl-3′,4′,4a′,5′-tetrahydro-1′H-spiro[cyclohexane-1,2′-dipyrido[1,2-b:2′,1′-f][1,2,4]triazine]-6′,8′-dione] | 19.2 nM |
| CN1C(=O)c2c(O)c(=O)ccn2N2C1CCCC2(C)c1ncccc1F (single isomer, unassigned) [Compound 27A, 1-(3-fluoropyridin-2-yl)-7-hydroxy-1,5-dimethyl-1,2,3,4,4a,5-hexahydrodipyrido[1,2-b:2′,1′-f][1,2,4]triazine-6,8-dione] | 859 nM |
| O=C1c2c(O)c(=O)ccn2N2C(c3ccccc3)C(CC3(C(F)(F)F)CC3)CCC2N1CC1CC1 (single isomer, unassigned) [Compound 90A, 5-(cyclopropylmethyl)-7-hydroxy-1-phenyl-2-((1-(trifluoromethyl)cyclopropyl)methyl)-1,2,3,4,4a,5-hexahydrodipyrido[1,2-b:2′,1′-f][1,2,4]triazine-6,8-dione] | 772 nM |
| CCN1C(=O)c2c(O)c(=O)ccn2N2C1CCCC2(C)c1cccc(C2CC2)n1 (single isomer, unassigned) [Compound 55A, 1-(6-cyclopropylpyridin-2-yl)-5-ethyl-7-hydroxy-1-methyl-1,2,3,4,4a,5-hexahydrodipyrido[1,2-b:2′,1′-f][1,2,4]triazine-6,8-dione] | > 810 nM |
| CC1CCC2N(C)C(=O)c3c(O)c(=O)ccn3N2C1(C)c1ccccc1 (single isomer, unassigned) [Compound 29B, 7-hydroxy-1,2,5-trimethyl-1-phenyl-1,2,3,4,4a,5-hexahydrodipyrido[1,2-b:2′,1′-f][1,2,4]triazine-6,8-dione] | 286 nM |
| CCN1C(=O)c2c(O)c(=O)ccn2N2C(c3ccccc3)C(CCC(F)F)CCC12 (single isomer, unassigned) [Compound 110A, 2-(3,3-difluoropropyl)-5-ethyl-7-hydroxy-1-phenyl-1,2,3,4,4a,5-hexahydrodipyrido[1,2-b:2′,1′-f][1,2,4]triazine-6,8-dione] | 1120 nM |
| CCC1(c2ccccc2)CCCC2N(C)C(=O)c3c(O)c(=O)ccn3N21 (single isomer, unassigned) [Compound 22B, 1-ethyl-7-hydroxy-5-methyl-1-phenyl-1,2,3,4,4a,5-hexahydrodipyrido[1,2-b:2′,1′-f][1,2,4]triazine-6,8-dione] | 5290 nM |

Source: patent US20240018145A1, “[…]-DEPENDENT EN[…] TREATING OR […]” (priority 2020, published 2024)
